How the values were obtained:
[1] = biological target: Human α2δ-1 subunit of Cav2.2 calcium channel (Homo sapiens, UniProt P54289); experiment: Human α2δ-1 subunit of Cav2.2 calcium channel assay ([3H]-gabapentin binding); details: binding to the α2δ-1 subunit of voltage-gated calcium channels, expressed as Ki class; + also covers inhibition between 1% and 50%
Summary of the method: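 Human α2δ-1 enriched membranes (2.5 μg) incubated 60 min at 27° C. with 15 nM [3H]-gabapentin in 10 mM Hepes-KOH pH 7.4; non-specific binding with 10 μM pregabalin. Filtration binding; % inhibition at 1 or 10 μM, or Ki from five concentrations.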

Human σ1 receptor = biological target: T1, Human σ1 receptor (Homo sapiens, UniProt Q99720); experiment: Human σ1 receptor radioligand assay ([3H](+)-pentazocine binding); details: binding to the σ1 receptor, expressed as Ki class; + also covers inhibition between 1% and 50%
T1 construct: expressed in transfected cells; host or cells: HEK-293
Summary of the method: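 Membranes (7 μg) were incubated with 5 nM [3H](+)-pentazocine in 50 mM Tris-HCl pH 8 for 120 min at 37° C. Non-specific binding was defined with 10 μM haloperidol. Values are % inhibition at 1 or 10 μM or Ki from five concentrations, read by filtration and scintillation counting.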

Sequence of Human α2δ-1 subunit of Cav2.2 calcium channel (P54289 25-1103): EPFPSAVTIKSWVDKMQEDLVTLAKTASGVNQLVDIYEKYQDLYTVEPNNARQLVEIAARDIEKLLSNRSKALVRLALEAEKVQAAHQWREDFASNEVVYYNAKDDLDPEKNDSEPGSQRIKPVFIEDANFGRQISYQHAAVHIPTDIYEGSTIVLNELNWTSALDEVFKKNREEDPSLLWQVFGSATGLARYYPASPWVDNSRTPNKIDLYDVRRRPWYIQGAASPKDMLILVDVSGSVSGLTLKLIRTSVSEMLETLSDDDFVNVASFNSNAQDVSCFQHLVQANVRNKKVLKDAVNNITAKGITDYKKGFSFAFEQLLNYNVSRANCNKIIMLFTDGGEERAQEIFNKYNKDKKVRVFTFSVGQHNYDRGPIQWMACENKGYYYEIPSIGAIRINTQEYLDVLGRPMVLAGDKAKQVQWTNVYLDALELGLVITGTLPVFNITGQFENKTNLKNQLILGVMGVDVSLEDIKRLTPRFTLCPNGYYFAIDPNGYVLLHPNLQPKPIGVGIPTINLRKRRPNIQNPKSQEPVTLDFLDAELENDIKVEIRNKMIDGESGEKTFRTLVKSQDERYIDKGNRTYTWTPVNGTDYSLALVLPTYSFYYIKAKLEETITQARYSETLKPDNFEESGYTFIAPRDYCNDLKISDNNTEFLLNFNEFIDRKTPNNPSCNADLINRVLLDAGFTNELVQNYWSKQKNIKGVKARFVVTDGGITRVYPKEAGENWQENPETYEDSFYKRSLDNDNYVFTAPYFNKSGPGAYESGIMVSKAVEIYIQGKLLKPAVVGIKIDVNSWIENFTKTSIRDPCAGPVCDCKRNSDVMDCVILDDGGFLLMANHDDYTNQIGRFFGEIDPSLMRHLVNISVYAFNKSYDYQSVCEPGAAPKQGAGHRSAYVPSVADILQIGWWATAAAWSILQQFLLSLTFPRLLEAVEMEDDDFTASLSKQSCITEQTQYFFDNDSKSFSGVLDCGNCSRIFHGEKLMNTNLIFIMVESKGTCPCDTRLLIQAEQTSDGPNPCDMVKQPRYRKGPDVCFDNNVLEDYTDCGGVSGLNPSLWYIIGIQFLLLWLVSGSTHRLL
T1 sequence (Q99720 whole entry): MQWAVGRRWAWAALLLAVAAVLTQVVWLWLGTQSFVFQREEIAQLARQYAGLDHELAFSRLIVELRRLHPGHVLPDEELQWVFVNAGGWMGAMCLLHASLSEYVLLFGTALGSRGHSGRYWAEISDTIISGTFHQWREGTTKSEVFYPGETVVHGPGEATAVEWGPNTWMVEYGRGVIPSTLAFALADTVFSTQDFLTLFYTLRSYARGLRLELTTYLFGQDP

Row | Ki [1] [nM] | Ki (Human σ1 receptor) [nM] | Compound
1 | < 500 | < 500 | CCCC(c1nc2ccc(Br)cc2c(=O)n1CC(C)C)N1CCCN(CC)CC1 (stereo not shown) [Example 58, 6-bromo-2-(1-(4-ethyl-1,4-diazepan-1-yl)butyl)-3-isobutylquinazolin-4(3H)-one]
2 | < 500 | > 1000 | CCC[C@H](c1nc2cc(F)c(OC)cc2c(=O)n1CC)N1CCNC[C@@H](C)C1 [Example 243, 3-ethyl-7-fluroo-6-methoxy-2-((R)-1-((R)-6-methyl-1,4-diazepan-1-yl)butyl)quinazolin-4(3H)-one]
3 | > 5000 | > 1000 | CCCC(c1nc2ccc(Br)cc2c(=O)n1CC)N1CCN(C)CC(F)(F)C1 (stereo not shown) [Example 42, 6-bromo-2-(1-(6,6-difluoro-4-methyl-1,4-diazepan-1-yl)butyl)-3-ethylquinazolin-4(3H)-one]
4 | < 500 | > 1000 | CCCC(c1nc2cc(C)c(Br)cc2c(=O)n1CC)N1CCCNCC1 (stereo not shown) [Example 44, 2-(1-(1,4-diazepan-1-yl)butyl)-6-bromo-3-ethyl-7-methylquinazolin-4(3H)-one]
5 | < 500 | > 1000 | CCC[C@H](c1nc2cc(Cl)c(Cl)cc2c(=O)n1CC)N1CCNC[C@@H](C)C1 [Example 110, 6,7-dichloro-3-ethyl-2-((R)-1-((R)-6-methyl-1,4-diazepan-1-yl)butyl)quinazolin-4(3H)-one]
6 | < 500 | < 500 | CCC[C@H](c1nc2ccc(F)cc2c(=O)n1CC)N1CCN[C@@H](C)CC1 [Example 236, 3-ethyl-6-fluoro-2-((R)-1-((S)-5-methyl-1,4-diazepan-1-yl)butyl)quinazolin-4(3H)-one]
7 | < 500 | 500 to 1000 | CCC[C@H](c1nc2cc(F)c(Cl)cc2c(=O)n1CC)N1CCNC[C@@H](C)C1 [Example 119, 6-chloro-3-ethyl-7-fluoro-2-((R)-1-((R)-6-methyl-1,4-diazepan-1-yl)butyl)quinazolin-4(3H)-one]
8 | < 500 | > 1000 | CCC[C@H](c1nc2ccncc2c(=O)n1CC)N1CCN(C)C[C@@H](C)C1 [Example 168, 2-((R)-1-((R)-4,6-dimethyl-1,4-diazepan-1-yl)butyl)-3-ethylpyrido[4,3-d]pyrimidin-4(3H)-one]
9 | 500 to 5000 | > 1000 | CCCC(c1nc2ccc(Br)cc2c(=O)n1CCOC)N1CCCN(C)CC1 (stereo not shown) [Example 14, 6-bromo-3-(2-methoxyethyl)-2-(1-(4-methyl-1,4-diazepan-1-yl)butyl)quinazolin-4(3H)-one]
10 | < 500 | 500 to 1000 | CCC[C@H](c1nc2cc(F)c(Cl)cc2c(=O)n1CC)N1CCN(C)C[C@@H](C)C1 [Example 136, 6-chloro-2-((R)-1-((R)-4,6-dimethyl-1,4-diazepan-1-yl)butyl)-3-ethyl-7-fluoroquinazolin-4(3H)-one]
11 | < 500 | < 500 | CCC[C@H](c1nc2ccc(Cl)cc2c(=O)n1C)N1CCCN[C@H](C)C1 [Example 147, 6-Chloro-3-methyl-2-((R)-1-((R)-3-methyl-1,4-diazepan-1-yl)butyl)quinazolin-4(3H)-one]
12 | < 500 | < 500 | CCCC(c1nc2ccc(F)cc2c(=O)n1CC)N1CCCN(C)CC1 (stereo not shown) [Example 21, 3-ethyl-6-fluoro-2-(1-(4-methyl-1,4-diazepan-1-yl)butyl)quinazolin-4(3H)-one]
13 | > 5000 | > 1000 | CCC[C@@H](c1nc2ccc(Cl)cc2c(=O)n1CC)N1CCN(C)C[C@@H](C)C1 [Example 74, 6-chloro-2-((S)-1-((R)-4,6-dimethyl-1,4-diazepan-1-yl)butyl)-3-ethylquinazolin-4(3H)-one]
14 | > 5000 | < 500 | CCC[C@H](c1nc2ccc(Cl)cc2c(=O)n1C)N1CC[C@H](C)N(C)CC1 [Example 254, 6-chloro-2-((R)-1-((S)-4,5-dimethyl-1,4-diazepan-1-yl)butyl)-3-methylquinazolin-4(3H)-one]
15 | > 5000 | > 1000 | CCCC(c1nc2c(Cl)cc(F)cc2c(=O)n1CC)N1CCCN(C)CC1 (stereo not shown) [Example 64, 8-chloro-3-ethyl-6-fluoro-2-(1-(4-methyl-1,4-diazepan-1-yl)butyl)quinazolin-4(3H)-one]
16 | > 5000 | > 1000 | CCCC(c1nc2cccnc2c(=O)n1CC)N1CCCN(CC)CC1 (stereo not shown) [Example 88, 3-ethyl-2-(1-(4-ethyl-1,4-diazepan-1-yl)butyl)pyrido[3,2-d]pyrimidin-4(3H)-one]
17 | < 500 | 500 to 1000 | CCCC(c1nc2cc(F)c(F)cc2c(=O)n1CC)N1CCCN(C)CC1 (stereo not shown) [Example 29, 3-ethyl-6,7-difluoro-2-(1-(4-methyl-1,4-diazepan-1-yl)butyl)quinazolin-4(3H)-one]
18 | < 500 | 500 to 1000 | CCC[C@H](c1nc2cc(OC)c(F)cc2c(=O)n1CC)N1CCCN(CC)CC1 [Example 231, (R)-3-ethyl-2-(1-(4-ethyl-1,4-diazepan-1-yl)butyl)-6-fluoro-7-methoxyquinazolin-4(3H)-one]
19 | 500 to 5000 | 500 to 1000 | CCCC(c1nc2c(F)cc(OC)cc2c(=O)n1CC)N1CCCN(C)CC1 (stereo not shown) [Example 117, 3-ethyl-8-fluoro-6-methoxy-2-(1-(4-methyl-1,4-diazepan-1-yl)butyl)quinazolin-4(3H)-one]
20 | < 500 | < 500 | CCC[C@H](c1nc2ccc(Br)cc2c(=O)n1CC)N1CCCN(C)CC1 [Example 151, (R)-6-Bromo-3-ethyl-2-(1-(4-methyl-1,4-diazepan-1-yl)butyl)quinazolin-4(3H)-one]

Further lines, the compound ahead of its results:

Row | Compound | Ki [1] [nM] | Ki (Human σ1 receptor) [nM]
21 | CCCC(c1nc2cc(Br)c(F)cc2c(=O)n1CCC)N1CCCN(C)CC1 (stereo not shown) [Example 31, 7-bromo-6-fluoro-2-(1-(4-methyl-1,4-diazepan-1-yl)butyl)-3-propylquinazolin-4(3H)-one] | < 500 | 500 to 1000
22 | CCCC(c1nc2cc(F)c(Br)cc2c(=O)n1CC)N1CCCNCC1 (stereo not shown) [Example 27, 2-(1-(1,4-diazepan-1-yl)butyl)-6-bromo-3-ethyl-7-fluoroquinazolin-4(3H)-one] | < 500 | > 1000
23 | CCCC(c1nc2cc(C)c(Br)cc2c(=O)n1CC)N1CCCN(CC)CC1 (stereo not shown) [Example 48, 6-bromo-3-ethyl-2-(1-(4-ethyl-1,4-diazepan-1-yl)butyl)-7-methylquinazolin-4(3H)-one] | < 500 | < 500
24 | CCC[C@@H](c1nc2ccc(Br)cc2c(=O)n1CC)N1CCNC[C@@H](O)C1 [Example 113, 6-Bromo-3-ethyl-2-((S)-1-((R)-6-hydroxy-1,4-diazepan-1-yl)butyl)quinazolin-4(3H)-one] | > 5000 | > 1000
25 | CC[C@H]1CCn2c(nc3ccc(Br)cc3c2=O)[C@@H]1N1CCCN(C)CC1 [Example 270, (6R,7S)-2-bromo-7-ethyl-6-(4-methyl-1,4-diazepan-1-yl)-8,9-dihydro-6H-pyrido[2,1-b]quinazolin-11(7H)-one] | > 5000 | 500 to 1000
26 | CCC[C@H](c1nc2ccc(F)cc2c(=O)n1CCC)N1CCCN(CC)CC1 [Example 212, (R)-2-(1-(4-ethyl-1,4-diazepan-1-yl)butyl)-6-fluoro-3-propylquinazolin-4(3H)-one] | < 500 | < 500
27 | CCC[C@H](c1nc2cc(F)c(Cl)cc2c(=O)n1CC)N1CCNC[C@H](C)C1 [Example 118, 6-Chloro-3-ethyl-7-fluoro-2-((R)-1-((S)-6-methyl-1,4-diazepan-1-yl)butyl)quinazolin-4(3H)-one] | < 500 | 500 to 1000
28 | CCC[C@H](c1nc2ccc(F)cc2c(=O)n1CC)N1CCCN[C@H](C)C1 [Example 143, 3-Ethyl-6-fluoro-2-((R)-1-((R)-3-methyl-1,4-diazepan-1-yl)butyl)quinazolin-4(3H)-one] | < 500 | < 500
29 | CCC[C@H](c1nc2ncc(Br)cc2c(=O)n1CC)N1CCNC[C@@H](C)C1 [Example 199, 6-bromo-3-ethyl-2-((R)-1-((R)-6-methyl-1,4-diazepan-1-yl)butyl)pyrido[2,3-d]pyrimidin-4(3H)-one] | < 500 | > 1000
30 | CCC[C@H](c1nc2ccc(C(F)(F)F)cc2c(=O)n1CC)N1CCCN(C)CC1 [Example 252, (R)-3-ethyl-2-(1-(4-methyl-1,4-diazepan-1-yl)butyl)-6-(trifluoromethyl)quinazolin-4(3H)-one] | < 500 | < 500
31 | CCC[C@H](c1nc2ccc(F)c(F)c2c(=O)n1CC)N1CCN[C@@H](C)CC1 [Example 240, 3-ethyl-5,6-difluoro-2-((R)-1-((S)-5-methyl-1,4-diazepan-1-yl)butyl)quinazolin-4(3H)-one] | < 500 | < 500
32 | CCCC(c1nc2ccc(I)cc2c(=O)n1CC)N1CCCN(C)CC1 (stereo not shown) [Example 12, 3-ethyl-6-iodo-2-(1-(4-methyl-1,4-diazepan-1-yl)butyl)quinazolin-4(3H)-one] | < 500 | < 500
33 | CCCC(c1nc2ccc(Br)c(C)c2c(=O)n1CC)N1CCCN(C)CC1 (stereo not shown) [Example 24, 6-bromo-3-ethyl-5-methyl-2-(1-(4-methyl-1,4-diazepan-1-yl)butyl)quinazolin-4(3H)-one] | 500 to 5000 | < 500
34 | CCCC(c1nc2cc(C)c(Br)cc2c(=O)n1CC)N1CCCN(C)CC1 (stereo not shown) [Example 39, 6-bromo-3-ethyl-7-methyl-2-(1-(4-methyl-1,4-diazepan-1-yl)butyl)quinazolin-4(3H)-one] | < 500 | 500 to 1000
35 | CCC[C@@H](c1nc2ncc(F)cc2c(=O)n1CC)N1CCCN(C)CC1 [Example 202, (S)-3-ethyl-6-fluoro-2-(1-(4-methyl-1,4-diazepan-1-yl)butyl)pyrido[2,3-d]pyrimidin-4(3H)-one] | > 5000 | > 1000

Source: patent US12479830B2, “Homopiperazinyl and homopiperidinyl quinazolin-4(3H)-one derivatives having multimodal activity against pain” (ESTEVE PHARMACEUTICALS, S.A., priority 2019, dated 2025)
